Test results: patent US20080299109A1, “MECHANISM OF ASTRICYTE-NEURON SIGNALING” (Korea Institute of Science and Technology, priority 2007, published 2008)

How the values were obtained:
synaptic NMDA receptors [1] = experiment: Evoked NMDA EPSC current-voltage relationship in CA1 pyramidal cells; type: cell-based, rat; conditions: 100 μM APV
Description: (§1) Young rats (Sprague-Dawley, age P15-P20) or mice (C57/B16, age P14-19) were deeply anesthetized with isoflurane and decapitated. The brain was rapidly removed and submerged in an ice-cold oxygenated artificial cerebrospinal fluid (ACSF) comprised of 130 mM NaCl, 24 mM NaHCO3, 3.5 mM KCl, 1.25 mM NaH2PO4, 1 mM CaCl2,3 mM MgCl2, and 10 mM glucose saturated with 95% O2/5% CO2, at pH 7.4.
Slices were placed on the stage of an upright microscope underneath a platinum and nylon restraining grid, and superfused with oxygenated ACSF at room temperature (23° C.), some experiments are performed at 34° C. by a temperature controller (TC-344B, Warner, Hamden). The standard ACSF recording solution was comprised of 130 mM NaCl, 24 mM NaHCO3, 3.5 mM KCl, 1.25 mM NaH2PO4, 1.5 mM CaCl2, 1.5 mM MgCl2, and 10 mM glucose saturated with 95% O2/5% CO2, at pH 7.4. […]
(§2) Synaptic responses were evoked by applying 0.1 ms current injection (1-100 μA) to a bipolar stimulating electrode placed in the stratum radiatum. Thrombin (Calbiochem) concentration was determined as described by Gingrich et al. (2000) using conversion of 1 U/ml=10 nM. […]
EPSCs were evoked by electrical stimulation of Schaffer collateral axons in the CA1 stratum radiatum, and recorded from CA1 pyramidal neurons under voltage clamp. […]

[2] = test system: PAR1−/− cortical neurons on wild-type astrocyte monolayer; experiment: PAR1−/− cortical neurons co-cultured on wild-type astrocytes: dendritic Ca2+ and voltage clamp; type: cell-based, mouse
Description: For an astrocyte-neuron co-culture, a monolayer of wild-type astrocytes was grown to 70-100% confluency (7-14 days in culture). Subsequently, the cortex from a P0 to P5 PAR1−/− mouse (Connolly et al., 1996) was dissected free of meninges and digested for 30 min in 1 mg/ml trypsin at 37° C. PAR1−/− mice were >99% C57B1/6 (>7 backcrossings), and wild-type mice were from a colony derived from PAR1−/− littermates.
All experiments were done within 3 generations of establishing the homozygous colony. The cortical cells were plated at low density on top of the monolayer of wild-type astrocytes obtained in above Example 1.1. Neurons were used for Ca^2+ imaging after 1-5 days in culture.
Whole-cell perforated-patch recording from cultured cortical neurons or HEK cells under voltage clamp (holding potential −60 mV) was made with an Axopatch 200B amplifier (Axon Instruments, Union City, Calif.). The recording chamber was continually perfused with a recording solution comprised of 150 mM NaCl, 3 mM KCl, 2 mM CaCl2, 5.5 mM glucose, and 10 mM HEPES (pH 7.4 by NaOH; osmolality adjusted to 315-320 mOsm with sucrose). Recording electrodes (4-7 MΩ) were filled with (in mM) 150 mM CsMeSO4, 10 mM NaCl, 0.5 CaCl2, 10 mM HEPES, and 25-50 μg/ml gramicidin D (pH adjusted to 7.3 with CsOH and osmolality adjusted to 310 mOsm with sucrose). It took 20-30 min to achieve acceptable perforation with series resistance ranging from 30-60 MΩ. All electrophysiological data from cultured neurons cells in this study were collected at room temperature (23-26° C.).
After a 20 min recovery, the bath perfusion was stopped and TFLLR was applied by brief (<1 sec) pressure ejection onto the astrocyte hosting the dye-loaded neuron in a static bath condition. Changes in fluorescence were monitored in a number of dendritic processes (schematized in FIGS. 8a and 8b).

[3] = test system: NMDA receptor-mediated component of the EPSP; experiment: Current clamp EPSP recording in CA1 pyramidal cells; type: cell-based, rat; conditions: 50 μM APV
Description: as §1
The hemisected brain was glued onto the stage of a vibrating microtome (Leica VT1000 S) and sections of 300 μm thickness were cut and stored in an incubation chamber at room temperature for about 1 h before use. […]
as §2
A series of current clamp experiments were carried out to directly measure the effects of PAR1 activation on the NMDA receptor-mediated component of the EPSP recorded in the presence of 1.5 mM Mg^2+. […]

synaptic NMDA receptors [4] = experiment: Miniature EPSC analysis in CA1 pyramidal cells; type: cell-based, rat; conditions: APV 50 μM
Source text: Miniature EPSCs (mEPSCs) were digitized at 10 KHz and the records were filtered with a digital Gaussian filter (−3 dB) with a cutoff frequency of 1 kHz. The mEPSCs were automatically detected and grouped based on an amplitude threshold of 10 pA and a rise time between 0 to 5 (fast rise time) and 5 to 10 ms (slow rise time); a small number of apparent mEPSCs with rise times slower than 10 ms were not studied further. Selected mEPSCs were scaled, averaged, and fitted with a sum of two exponential functions,
Response Amplitude(t)=Amplitude1exp(−time/τ1)+Amplitude2exp(−time/τ2).
If the first decay constant (τ1) and the second decay constant (τ2) were within 10%, the curve was subsequently refitted with a single exponential function. Both the frequency and the peak amplitude of detected events were analyzed. […] All data were acquired, stored, and analyzed using pClamp 8 (Axon Instruments, Foster City, Calif.) and Mini Analysis Program (Synaptosoft). […]
To investigate the effects of PAR1 activation on synaptic NMDA receptors in normal concentrations of Mg^2+ (1.5 mM), the inventors recorded spontaneous miniature excitatory postsynaptic currents (mEPSCs) at −60 mV in the presence of 0.5 μM TTX to look for changes in the amplitude and decay kinetics of individual synaptic currents.

CA1 pyramidal cells = experiment: Current clamp membrane potential of CA1 pyramidal cells in hippocampal slices; type: cell-based, rat; conditions: APV itself
Description: as §1
The hemisected brain was glued onto the stage of a vibrating microtome (Leica VT1000 S) and sections of 300 μm thickness were cut and stored in an incubation chamber at room temperature for about 1 h before use. For voltage clamp experiments, the solution used to fill the electrodes was comprised of 140 mM Cs-MeSO4, 10 mM HEPES, 7 mM NaCl, 4 mM Mg-ATP, and 0.3 mM Na3-GTP; the solution for current clamp recordings was comprised of 140 mM K-MeSO4, 10 mM HEPES, 7 mM NaCl, 4 mM Mg-ATP, and 0.3 mM Na3-GTP, and supplemented with 1 mM QX314; and 1 mM QX314 was omitted from some current clamp recordings (e.g., FIG. 9e).
Slices were placed on the stage of an upright microscope underneath a platinum and nylon restraining grid, and superfused with oxygenated ACSF at room temperature (23° C.), some experiments are performed at 34° C. by a temperature controller (TC-344B, Warner, Hamden). The standard ACSF recording solution was comprised of 130 mM NaCl, 24 mM NaHCO3, 3.5 mM KCl, 1.25 mM NaH2PO4, 1.5 mM CaCl2, 1.5 mM MgCl2, and 10 mM glucose saturated with 95% O2/5% CO2, at pH 7.4. For some experiments 0.5-1 μM TTX, 10 μM NBQX, or 10-20 μM bicuculline were added to the extracellular solution, extracellular Mg^2+ was reduced to 5 μM, and/or extracellular Ca^2+ raised to 2 mM.
Visually guided whole-cell patch recordings were obtained from CA1 pyramidal neurons in a voltage clamp or current clamp configuration using an Axopatch 200A (Axon Instruments) and a borosilicate patch pipette of 5-7 MΩ resistance. […] Records were filtered at 5 kHz and digitized at 20 kHz using a Digidata 1200 A/D board.
Synaptic responses were evoked by applying 0.1 ms current injection (1-100 μA) to a bipolar stimulating electrode placed in the stratum radiatum. Thrombin (Calbiochem) concentration was determined as described by Gingrich et al. (2000) using conversion of 1 U/ml=10 nM. TFLLR and thrombin were applied by gravity perfusion at 1.0 ml/min, with extensive washing of perfusion lines, chamber, and objective between experiments to remove all residual thrombin, which has been reported to irreversibly cleave and PAR1 at a pM concentration. Removal of all thrombin ensured that PAR1 receptors were not pre-cleaved by residual thrombin prior to experimentation.

N[C@H](CCCP(=O)(O)O)C(=O)O [APV, D-2-amino-5-phosphono-valeric acid]
effect on NMDA component of evoked EPSCs (synaptic NMDA receptors [1]): blocked | peak amplitude of TFLLR-evoked current in presence of APV ([2]; 30 μM TFLLR, 50 μM APV): 2.5±0.3 pA | effect on TFLLR-induced dendritic fluorescence increase ([2]; APV 50 μM): blocked | effect on TFLLR potentiation of EPSP area [3]: reversed | effect on TFLLR-induced τ2 (synaptic NMDA receptors [4]): eliminated | effect on resting membrane potential of CA1 neurons (CA1 pyramidal cells): 0.4±0.7 mV
